Data on eight compounds can be found in article PMC8515607 (ACS Omega, 2021).

Read-outs that look alike come from different tables or passages of the source.

Assay [1] deals with human colon adenocarcinoma cell lines. The conditions noted are these: cited from earlier work.
The next assay concerns A549 and MCF7 cells. On the set-up: method as in PMID 32295119. The settings on record: read-out: IC50 A549 and MCF7 of 7-amide (span); amide directly on C7; cited from earlier work.
Assay [2] concerns MCF-7. On the set-up: method as in PMID 32295119. The settings on record: amide directly on C7; cited from earlier work.
Assay [3] relates to LoVo. On the set-up: method as in PMID 32295119. The settings on record: cited from earlier work.
Assay [4] deals with A549. Also noted: method as in PMID 32295119. The conditions noted are these: amide directly on C7; cited from earlier work.
Another assay concerns LoVo/DX. Put plainly: cells. Type of assay: cell-based, human. The conditions noted are these: for IC50: Homo sapiens, LoVo/DX, 72 h, read-out: LoVo/DX IC50 (nM), 72 h exposure, SRB, mean ± SD; for LoVo/DX RI: resistance index = IC50 LoVo/DX / IC50 LoVo; for LoVo/DX SI: selectivity index = IC50 BALB/3T3 / IC50 LoVo/DX.
Assay [5] relates to LoVo. The assay is described as follows: cells. The settings on record: for IC50: Homo sapiens, LoVo, 72 h, read-out: LoVo IC50 (nM); for LoVo SI: selectivity index = IC50 BALB/3T3 / IC50 LoVo. Type of assay: cell-based, human.
Assay [6] relates to A549. Put plainly: cells. Type of assay: cell-based, human. The settings on record: for A549 SI: selectivity index = IC50 BALB/3T3 / IC50 A549.
Assay [7] concerns MCF-7. The assay is described as follows: cells. Type of assay: cell-based, human. The settings on record: for IC50: Homo sapiens, MCF7, 72 h, read-out: MCF-7 IC50 (nM); for MCF-7 SI: selectivity index = IC50 BALB/3T3 / IC50 MCF-7.
The test system of assay [8] is all cells used, both cancerous and normal. The assay is described as follows: Antiproliferative activity, values quoted jointly for all cell lines tested. It is filed as cell-based. From the text:
The A549 and MCF7 cell lines were purchased from the European Collection of Authenticated Cell Cultures (ECACC, Salisbury, U.K., 86012804 and 86012803). The LoVo cell line was purchased from the American Type Culture Collection (CCL-229, ATCC, Manassas, VA), and LoVo/DX by courtesy of Prof. E. Borowski (Technical University of Gdańsk, Gdańsk, Poland). The BALB/3T3 cell line was purchased from the American Type Culture Collection (CCL-163, ATCC, Manassas, VA). All of the cell lines are maintained in the Institute of Immunology and Experimental Therapy (IIET), Wroclaw, Poland. […]
After 72 h of incubation with the tested compounds, the cells were fixed in situ by gently adding cold 50% trichloroacetic acid (TCA) (POCh, Poland) and were incubated at room temperature for 1 h. […] Absorbance of each solution was read at Synergy H4 Hybrid Multi-Mode Microplate Reader (BioTek Instruments) at the 540 nm wavelength.
IC50 values were calculated in Excel sheet using formulas adapted by Mateusz Psurski fromCheburator 0.4, Dmitry Nevozhay software (version 1.2.0 software by Dmitry Nevozhay, 2004–2014, http://www.cheburator.nevozhay.com, freely available) for each experiment.[58] […]

In the next assay the test system is BALB/3T3. The assay is described as follows: In vitro antiproliferative activity, SRB assay, normal fibroblasts BALB/3T3. It is filed as cell-based. The settings on record: Mus musculus, BALB/3T3, normal murine embryonic fibroblasts, 72 h, mean ± SD. Background: Sulforhodamine B stains cellular protein and so reports cell mass.
Assay [9] deals with A549, MCF-7, and LoVo cells. The assay is described as follows: Antiproliferative activity, values quoted jointly for three tumor lines. It is filed as cell-based, human. The conditions noted are these: summary of Table 1; for IC50: Homo sapiens, read-out: IC50 against A549, MCF-7, and LoVo cells (span over the three lines). From the text:
The A549 and MCF7 cell lines were purchased from the European Collection of Authenticated Cell Cultures (ECACC, Salisbury, U.K., 86012804 and 86012803). The LoVo cell line was purchased from the American Type Culture Collection (CCL-229, ATCC, Manassas, VA), and LoVo/DX by courtesy of Prof. E. Borowski (Technical University of Gdańsk, Gdańsk, Poland). The BALB/3T3 cell line was purchased from the American Type Culture Collection (CCL-163, ATCC, Manassas, VA). All of the cell lines are maintained in the Institute of Immunology and Experimental Therapy (IIET), Wroclaw, Poland.
A549 cells were cultured in a mixture of OptiMEM and Roswell Park Memorial Institute (RPMI) 1640 (1:1) medium (IIET, Wroclaw, Poland), supplemented with 10% fetal bovine serum HyClone (GE Healthcare) and 2 mM L-glutamine (Sigma-Aldrich, Germany). MCF7 cells were cultured in a mixture of Eagle’s medium (IIET, Wroclaw, Poland), supplemented with 10% fetal bovine serum, 2 mM L-glutamine, and insulin (Sigma-Aldrich, Germany). LoVo and LoVo/DX cells were cultured in F12K medium (Corning), supplemented with 10% fetal bovine serum HyClone (GE Healthcare) and 0.1 μg/mL doxorubicin (Accord) for LoVo/DX. BALB/3T3 fibroblasts were cultured in Dulbecco’s medium (Gibco), supplemented with 10% fetal bovine serum (GE Healthcare) and 2 mM L-glutamine (Sigma-Aldrich, Germany). All culture media contained antibiotics: 100 U/mL penicillin (Polfa-Tarchomin, Poland) and 0.1 mg/mL streptomycin (Sigma-Aldrich, Germany). All cell lines were cultured during entire experiment in humid atmosphere at 37 °C and 5% CO2.
All cell lines were exposed to each tested agent at different concentrations in the range 100–0.00001 μg/mL for 72 h. The cells were also exposed to the reference drug cisplatin (Teva Pharmaceuticals, Poland) and doxorubicin (Accord Healthcare Limited, U.K.). Additionally, all cell lines were exposed to dimethyl sulfoxide (DMSO) (solvent used for tested compounds) (POCh, Poland) at concentrations corresponding to those present in tested agents dilutions. After 72 h, sulforhodamine B (SRB) assay was performed.[57]
After 72 h of incubation with the tested compounds, the cells were fixed in situ by gently adding cold 50% trichloroacetic acid (TCA) (POCh, Poland) and were incubated at room temperature for 1 h. Then, the wells were washed four times with water and air-dried. Next, 0.1% solution of sulforhodamine B (Sigma-Aldrich, Germany) in 1% acetic acid (POCh, Poland) was added to each well and the plates were incubated at room temperature for 0.5 h. After incubation time, unbound dye was removed by washing plates four times with 1% acetic acid, whereas stain bound to cells was solubilized with 10 mM Tris base (Sigma-Aldrich, Germany). Absorbance of each solution was read at Synergy H4 Hybrid Multi-Mode Microplate Reader (BioTek Instruments) at the 540 nm wavelength.
IC50 values were calculated in Excel sheet using formulas adapted by Mateusz Psurski fromCheburator 0.4, Dmitry Nevozhay software (version 1.2.0 software by Dmitry Nevozhay, 2004–2014, http://www.cheburator.nevozhay.com, freely available) for each experiment.[58] Compounds at each concentration were tested in triplicate in a single experiment, and each experiment was repeated at least three times independently.

Setting [10] is: Homo sapiens, A549, 72 h, read-out: A549 IC50 (nM), 72 h exposure, SRB, mean ± SD.

Regarding `CNc1ccc2c(cc1=O)C(NCc1ccccc1Cl)CCc1cc(OC)c(OC)c(OC)c1-2` (centres unmarked) [7-N-(2-chlorobenzyl)-10-methylaminocolchcine], the calculated selectivity coefficients result in assay [1] is “around 90”.

As to `CCCCCCCCCCCCCCCC(=O)N[C@H]1CCc2cc(OC)c(OC)c(OC)c2-c2ccc(NC)c(=O)cc21` [7-palmitamide], the IC50 with A549 and MCF7 cells is 460 to 620 nM; with LoVo [3] (read-out: IC50 LoVo of 7-amide, amide directly on C7 of 10-N-methylaminocolchicine) it was 62 nM. Further, the “SI MCF7 of 7-amide” value in the assay with MCF-7 [2] is on record as 1.2. Besides, the “SI LoVo of 7-amide” value with LoVo [3] (amide directly on C7) was 8.8. Besides, in the assay with A549 [4], the “SI A549 of 7-amide” value is recorded as 0.9.

On to `CNc1ccc2c(cc1=O)[C@@H](N=[N+]=[N-])CCc1cc(OC)c(OC)c(OC)c1-2` [Compound 4, 7-azido-10-N-methylaminocolchicine], for which the IC50 with LoVo/DX was 1.7 ± 0.6 nM; in the assay on LoVo [5] it was 1.1 ± 0.5 nM; in the assay with A549 [6] (setting [10]), 1.4 ± 0.5 nM; in the assay with MCF-7 [7] it was 1.5 ± 0.3 nM; in assay [8] (cancerous and normal lines, read-out: IC50 against all cells used (span)), 1.1 to 2.1 nM; in the assay with BALB/3T3 it was 2.1 ± 1.2 nM. For the same compound, the “LoVo/DX RI” value in the assay with LoVo/DX is reported as 1.5. The “LoVo/DX SI” value in the assay on LoVo/DX turned out to be 1.2. The “LoVo SI” value in the assay with LoVo [5] is given as 1.9. For the same compound, in the assay with A549 [6], the “A549 SI” value came out at 1.5. Further, in the assay on MCF-7 [7], the “MCF-7 SI” value was 1.4. Also, the “SI (selectivity coefficients, all cancer lines)” value in assay [8] is listed as less than 2.

For `CNc1ccc2c(cc1=O)[C@@H](n1ccnn1)CCc1cc(OC)c(OC)c(OC)c1-2` [Compound 5], the IC50 with LoVo/DX was 55 ± 20 nM; with LoVo [5] it was 5.6 ± 0.6 nM; with A549 [6] (setting [10]), 6.1 ± 1.1 nM; with MCF-7 [7], 5.6 ± 1 nM; in [9] it was 3.1 to 6.4 nM; in the assay on BALB/3T3, 11 ± 2.2 nM. The “LoVo/DX RI” value in the assay with LoVo/DX is given as 9.8. The “LoVo/DX SI” value in the assay on LoVo/DX is 0.2. In addition, in the assay on LoVo [5], the “LoVo SI” value was found to be 2.0. The “A549 SI” value in the assay with A549 [6] worked out at 1.8. Further, the “MCF-7 SI” value with MCF-7 [7] is given as 2.0.

For the compound `CNc1ccc2c(cc1=O)[C@@H](n1cc(C(=O)OC)nn1)CCc1cc(OC)c(OC)c(OC)c1-2` [Compound 18], the IC50 with LoVo/DX was 280 ± 77 nM; in the assay with LoVo [5] it was 12 ± 4.3 nM; in the assay on A549 [6] (setting [10]), 13 ± 2.3 nM; with MCF-7 [7], 12 ± 2.7 nM; in assay [9] it was 10 to 25 nM; with BALB/3T3 it was 20 ± 13 nM. For the same compound, the “LoVo/DX RI” value in the assay with LoVo/DX stood at 23. The “LoVo/DX SI” value with LoVo/DX is recorded as 0.1. Moreover, in the assay on LoVo [5], the “LoVo SI” value worked out at 1.7. Moreover, the “A549 SI” value in the assay with A549 [6] is on record as 1.5. Also, the “MCF-7 SI” value in the assay on MCF-7 [7] was determined as 1.7.

On to `CCOC(=O)c1cn([C@H]2CCc3cc(OC)c(OC)c(OC)c3-c3ccc(NC)c(=O)cc32)nn1` [Compound 19], for which the IC50 with LoVo/DX is 220 ± 23 nM; with LoVo [5], 13 ± 3.5 nM; in the assay with A549 [6] (setting [10]) it was 17 ± 0.8 nM; in the assay on MCF-7 [7] it was 11 ± 3.7 nM; in [9] it was 10 to 25 nM; in the assay with BALB/3T3, 24 ± 11 nM. Besides, in the assay on LoVo/DX, the “LoVo/DX RI” value came to 17. In addition, in the assay with LoVo/DX, the “LoVo/DX SI” value is listed as 0.1. Also, in the assay with LoVo [5], the “LoVo SI” value is 1.8. Also, the “A549 SI” value with A549 [6] amounted to 1.4.

As to `CNc1ccc2c(cc1=O)[C@@H](n1cc(CNC(=O)Oc3ccccc3)nn1)CCc1cc(OC)c(OC)c(OC)c1-2` [Compound 43], in the assay with LoVo/DX, the IC50 came to 920 ± 150 nM, the “LoVo/DX RI” value is listed as 200 and the “LoVo/DX SI” value is on record as less than 0.1. Moreover, in the assay with LoVo [5], the IC50 was 4.7 ± 1.1 nM and the “LoVo SI” value is listed as 2.3. The IC50 in the assay on A549 [6] (setting [10]) turned out to be 4.1 ± 0.6 nM. The “A549 SI” value in the assay on A549 [6] is 2.7. Besides, in the assay on MCF-7 [7], the IC50 amounted to 2.8 ± 1.2 nM and the “MCF-7 SI” value turned out to be 3.9. Also, the “SI for A549, MCF-7, and LoVo cells (span)” value in [9] was 2.1–3.9. Besides, in the assay on BALB/3T3, the IC50 was found to be 11 ± 0.4 nM.

For the compound `CNc1ccc2c(cc1=O)[C@@H](n1cc(CNC(=O)OCC(C)C)nn1)CCc1cc(OC)c(OC)c(OC)c1-2` [Compound 40], the IC50 is 310 ± 61 nM with LoVo/DX; 1.7 ± 0.2 nM in the assay with LoVo [5]; 1.2 to 1.9 nM with A549 [6] (setting [10]); 1.2 ± 0.1 nM in the assay on A549 [6] (read-out: A549 IC50, 72 h exposure, SRB, mean ± SD); 1.2 ± 0.3 nM with MCF-7 [7]; 1.2 to 1.7 nM in assay [9]. In addition, the IC50 in the assay on BALB/3T3 was 3.9 ± 0.2 nM. Also, the “LoVo/DX RI” value with LoVo/DX is on record as 180. Also, the “LoVo/DX SI” value in the assay with LoVo/DX is given as less than 0.1. Besides, the “LoVo SI” value in the assay with LoVo [5] was found to be 2.3. In the assay on A549 [6], the “A549 SI” value is on record as 3.3. The “MCF-7 SI” value in the assay on MCF-7 [7] is on record as 3.3. Besides, in assay [9], the “SI for A549, MCF-7, and LoVo cells (span)” value is 2.1–3.9.
